Like-named read-outs stand apart in the source and are kept apart here.
How the values were obtained:
[1] = type: physicochemical
Experimental: • (i) LCMS of compound 3099DOX. • 0-3 min: 2% B; 3-20 min: 2-98% B; 20-25 min: 98% B. • Ran with 1.8 μm particle size column on the Old LCMS. • Calc.

PREP [2] = target: T1, PREP (Homo sapiens, UniProt P48147); assay: Specificity of activation: 24 h digestion with PREP; type: biochemical; conditions: 100 μM prodrug, 37° C.
T1 sequence (P48147 1-710): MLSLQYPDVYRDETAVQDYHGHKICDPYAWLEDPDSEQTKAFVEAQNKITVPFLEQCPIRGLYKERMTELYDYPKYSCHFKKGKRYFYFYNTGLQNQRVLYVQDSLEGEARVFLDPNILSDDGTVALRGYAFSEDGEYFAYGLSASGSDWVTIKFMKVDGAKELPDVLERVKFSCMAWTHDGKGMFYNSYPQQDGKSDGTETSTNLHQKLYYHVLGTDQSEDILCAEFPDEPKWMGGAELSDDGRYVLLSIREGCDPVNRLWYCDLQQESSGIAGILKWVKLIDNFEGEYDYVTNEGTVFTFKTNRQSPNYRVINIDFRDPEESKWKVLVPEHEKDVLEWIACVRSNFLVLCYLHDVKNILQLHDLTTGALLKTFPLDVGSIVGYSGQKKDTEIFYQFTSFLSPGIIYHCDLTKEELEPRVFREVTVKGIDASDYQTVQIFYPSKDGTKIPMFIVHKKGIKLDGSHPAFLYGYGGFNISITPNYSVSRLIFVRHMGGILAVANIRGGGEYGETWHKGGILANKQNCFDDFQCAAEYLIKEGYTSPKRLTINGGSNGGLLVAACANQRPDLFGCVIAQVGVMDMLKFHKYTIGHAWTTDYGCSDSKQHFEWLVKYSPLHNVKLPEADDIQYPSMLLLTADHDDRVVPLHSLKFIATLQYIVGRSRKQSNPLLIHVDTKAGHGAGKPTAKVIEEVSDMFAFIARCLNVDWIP
Experimental: (§1) Total doxorubicin was measured for each assay.

PREP [3] = target: T1, PREP; type: biochemical; conditions: 1.34×10^−8 M PREP, 37° C.
Experimental: (§2) 3099DOX at various concentrations ranging from 8.5×10^−6 M to 6.9×10^−4 M was incubated with 1.34×10^−8 M FAP or PREP at 37° C., and released doxorubicin measured.

[4] = 100 μM prodrug, 37° C., 12 h
FAP [5] = target: T2, FAP (Homo sapiens, UniProt Q12884); assay: Rate of recombinant FAP activity on doxorubicin prodrugs; conditions: 37° C.
T2 sequence (Q12884 1-760): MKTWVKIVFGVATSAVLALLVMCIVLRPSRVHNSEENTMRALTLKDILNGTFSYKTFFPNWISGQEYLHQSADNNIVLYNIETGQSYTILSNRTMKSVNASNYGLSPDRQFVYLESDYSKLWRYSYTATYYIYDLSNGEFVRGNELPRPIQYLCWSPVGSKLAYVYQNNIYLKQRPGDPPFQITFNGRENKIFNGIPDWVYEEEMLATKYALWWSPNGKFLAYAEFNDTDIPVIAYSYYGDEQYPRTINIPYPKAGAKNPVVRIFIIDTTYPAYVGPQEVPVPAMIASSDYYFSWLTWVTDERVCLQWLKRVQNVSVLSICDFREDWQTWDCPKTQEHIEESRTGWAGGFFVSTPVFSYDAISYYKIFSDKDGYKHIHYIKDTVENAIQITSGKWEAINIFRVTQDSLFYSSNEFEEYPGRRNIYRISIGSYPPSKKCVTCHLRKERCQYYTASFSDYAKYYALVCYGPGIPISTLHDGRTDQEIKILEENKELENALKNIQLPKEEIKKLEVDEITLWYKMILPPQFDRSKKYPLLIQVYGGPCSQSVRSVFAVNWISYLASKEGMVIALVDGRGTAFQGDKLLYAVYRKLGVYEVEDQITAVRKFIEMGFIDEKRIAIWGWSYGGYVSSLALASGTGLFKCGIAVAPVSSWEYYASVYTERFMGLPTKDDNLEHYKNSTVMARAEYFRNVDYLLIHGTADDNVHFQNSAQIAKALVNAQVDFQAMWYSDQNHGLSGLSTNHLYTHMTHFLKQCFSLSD
Experimental: 3099DOX, z-GP-DOX, and 3996DOX were incubated in the presence of recombinant FAP at 37° C. for 24 hours. Released doxorubicin was measured at 1, 4, 12, and 24 hours.

FAP [6] = target: T2, FAP; type: biochemical; conditions: 1.34×10^−8 M FAP, 37° C.
Experimental: Michaelis-Menten enzyme kinetics for FAP were measured using a SpectraMax M2e microplate reader (Molecular Devices, Sunnyvale, CA, USA). The assays were performed in FAP buffer (50 mM […], 140 mM NaCl, pH 7.5) at 25° C., and the fluorescence continuously monitored at excitation and emission wavelengths of 380 and 460 nm, respectively. Kinetic constants (kcat and Km) were determined using GP-AMC (Bachem, Torrance, CA, USA), Ac-(D)-AP-AFC (MP Biomedicals, Solon, OH, USA) and test article concentrations equivalent to 0.1-5 times their respective Km values, and with 5-10 nM enzyme. All assays were performed in triplicate, and the results were calculated with a nonlinear regression analysis, relying on a Michaelis-Menten curve fit using GraphPad software.
as §2

FAP [7] = target: T2, FAP; assay: Specificity of activation: 24 h digestion with FAP; type: biochemical; conditions: 100 μM prodrug, 37° C.
Experimental: as §1

FAP [8] = target: T2, FAP; assay: In vitro FAP inhibition assay; type: biochemical
PREP [9] = target: T1, PREP; assay: In vitro PREP inhibition assay; type: biochemical
DPPII = DPPII (Homo sapiens, UniProt Q9UHL4); assay: In vitro DPPII inhibition assay; type: biochemical
DPP9 = DPP9 (Homo sapiens, UniProt Q86TI2); assay: In vitro DPP9 inhibition assay; type: biochemical
DPPIV = DPPIV (Homo sapiens, UniProt P27487); assay: In vitro DPPIV inhibition assay; type: biochemical
DPP8 = DPP8 (Homo sapiens, UniProt Q6V1X1); assay: In vitro DPP8 inhibition assay; type: biochemical
FAP [10] = target: T2, FAP; assay: Selectivity of FAP over PREP (5057DOX digest, LCMS); type: biochemical; conditions: FIG. 14; 240 nM 5057DOX, 12, 24 or 48 nM enzyme, 37° C.
Experimental: Recombinant enzyme (FAP or PREP) was combined, at reaction concentration of 12 nM, 24 nM, or 48 nM, with 240 nM 5057DOX in FAP buffer (50 mM Tris-HCl, pH 7.4, 140 mM NaCl) and incubated at 37° C. Reactions were stopped at 0, 10, 20, or 30 minutes by addition of equal volume of 10 μM Val-boroPro (FAP inhibitor). Doxorubicin was measured by liquid chromatography/mass spectroscopy (LCMS).

FAP [11] = target: T2, FAP; assay: FAP digest of 5057DOX (kinetics); type: biochemical
[12] = target: dipeptidyl peptidase IV (DPP IV) (Homo sapiens, UniProt P27487); assay: Specificity of activation: 24 h digestion with DPP IV; type: biochemical; conditions: 100 μM prodrug, 37° C.
Experimental: as §1

DPPIV, sequence (P27487 whole entry, species assumed): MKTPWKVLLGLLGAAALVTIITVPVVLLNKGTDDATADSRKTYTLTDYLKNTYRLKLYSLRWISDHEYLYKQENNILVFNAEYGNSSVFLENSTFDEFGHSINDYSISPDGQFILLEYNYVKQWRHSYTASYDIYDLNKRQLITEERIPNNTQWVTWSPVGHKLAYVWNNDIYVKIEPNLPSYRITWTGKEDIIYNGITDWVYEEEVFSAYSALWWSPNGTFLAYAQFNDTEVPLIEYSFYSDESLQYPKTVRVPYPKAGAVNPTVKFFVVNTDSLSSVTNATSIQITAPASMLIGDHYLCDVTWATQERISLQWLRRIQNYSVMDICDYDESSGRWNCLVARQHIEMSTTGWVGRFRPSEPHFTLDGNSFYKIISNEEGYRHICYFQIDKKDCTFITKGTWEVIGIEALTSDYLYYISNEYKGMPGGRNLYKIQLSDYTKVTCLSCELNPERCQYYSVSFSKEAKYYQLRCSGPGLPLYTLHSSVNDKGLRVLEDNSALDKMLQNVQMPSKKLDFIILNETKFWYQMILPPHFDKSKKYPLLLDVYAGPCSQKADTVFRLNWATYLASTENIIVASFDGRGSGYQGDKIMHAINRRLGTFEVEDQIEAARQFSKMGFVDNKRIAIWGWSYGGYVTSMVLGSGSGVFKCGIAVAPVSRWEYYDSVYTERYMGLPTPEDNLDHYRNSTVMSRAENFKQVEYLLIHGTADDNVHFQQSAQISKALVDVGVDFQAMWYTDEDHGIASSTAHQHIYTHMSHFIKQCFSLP
dipeptidyl peptidase IV (DPP IV), sequence (P27487 whole entry, species assumed): as above
DPP8, sequence (Q6V1X1 whole entry, species assumed): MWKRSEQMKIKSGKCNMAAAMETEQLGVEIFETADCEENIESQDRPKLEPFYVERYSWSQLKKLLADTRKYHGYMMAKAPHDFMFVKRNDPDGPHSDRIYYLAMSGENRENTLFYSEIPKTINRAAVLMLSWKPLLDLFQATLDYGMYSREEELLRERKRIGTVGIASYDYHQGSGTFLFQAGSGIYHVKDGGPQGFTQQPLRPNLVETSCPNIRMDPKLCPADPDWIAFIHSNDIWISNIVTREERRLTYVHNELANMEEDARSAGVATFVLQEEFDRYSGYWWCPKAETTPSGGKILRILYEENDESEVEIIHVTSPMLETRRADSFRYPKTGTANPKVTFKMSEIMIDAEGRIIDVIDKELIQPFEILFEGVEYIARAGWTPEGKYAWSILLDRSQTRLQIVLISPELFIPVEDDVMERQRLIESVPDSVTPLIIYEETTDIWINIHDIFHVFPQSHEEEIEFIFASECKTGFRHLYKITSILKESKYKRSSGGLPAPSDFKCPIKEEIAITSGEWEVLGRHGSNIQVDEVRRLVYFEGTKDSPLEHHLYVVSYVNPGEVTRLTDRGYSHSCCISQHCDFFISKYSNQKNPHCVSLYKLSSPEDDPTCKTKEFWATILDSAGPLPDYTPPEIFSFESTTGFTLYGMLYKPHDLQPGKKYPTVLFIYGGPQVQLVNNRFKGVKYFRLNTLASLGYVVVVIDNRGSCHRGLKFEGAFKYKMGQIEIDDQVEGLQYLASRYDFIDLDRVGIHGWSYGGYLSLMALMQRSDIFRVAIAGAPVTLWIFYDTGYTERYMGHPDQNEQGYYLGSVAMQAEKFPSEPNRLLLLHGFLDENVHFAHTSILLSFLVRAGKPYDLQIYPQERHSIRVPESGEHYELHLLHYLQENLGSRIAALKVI
DPP9, sequence (Q86TI2 whole entry, species assumed): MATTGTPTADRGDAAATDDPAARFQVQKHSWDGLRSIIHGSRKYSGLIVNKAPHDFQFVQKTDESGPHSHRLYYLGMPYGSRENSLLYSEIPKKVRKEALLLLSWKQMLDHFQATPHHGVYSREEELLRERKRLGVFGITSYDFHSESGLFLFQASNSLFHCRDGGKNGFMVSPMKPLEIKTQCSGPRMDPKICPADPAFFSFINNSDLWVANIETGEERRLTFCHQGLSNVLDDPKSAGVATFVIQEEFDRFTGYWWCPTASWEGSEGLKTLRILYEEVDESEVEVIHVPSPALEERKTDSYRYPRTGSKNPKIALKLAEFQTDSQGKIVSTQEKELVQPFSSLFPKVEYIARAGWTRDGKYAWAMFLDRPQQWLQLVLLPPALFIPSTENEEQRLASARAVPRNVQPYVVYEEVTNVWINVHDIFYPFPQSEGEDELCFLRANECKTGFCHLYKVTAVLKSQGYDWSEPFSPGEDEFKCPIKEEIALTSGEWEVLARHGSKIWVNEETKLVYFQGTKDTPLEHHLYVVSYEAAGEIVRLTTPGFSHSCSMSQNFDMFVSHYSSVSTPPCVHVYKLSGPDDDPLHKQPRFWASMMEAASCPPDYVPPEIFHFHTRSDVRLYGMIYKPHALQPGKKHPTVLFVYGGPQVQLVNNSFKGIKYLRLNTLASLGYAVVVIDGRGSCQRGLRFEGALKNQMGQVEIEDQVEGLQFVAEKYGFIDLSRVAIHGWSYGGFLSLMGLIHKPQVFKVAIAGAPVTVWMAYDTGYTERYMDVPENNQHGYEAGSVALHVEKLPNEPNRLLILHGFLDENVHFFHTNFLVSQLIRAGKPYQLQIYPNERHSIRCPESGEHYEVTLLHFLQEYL

COc1cccc2c1C(=O)c1c(O)c3c(c(O)c1C2=O)C[C@@](O)(C(=O)CO)C[C@@H]3O[C@H]1C[C@H](NC(=O)[C@@H]2CCCN2C(=O)[C@@H](C)NC(=O)c2ccncc2)[C@H](O)[C@H](C)O1 [Compound 3099DOX]
Remaining Purity % ([1]; 22° C./72% RH, 1 month): 99.5% | Remaining Purity % ([1]; 22° C./72% RH, 1 week): 99.3% | Remaining Purity % ([1]; 22° C./72% RH, 2 month): 98.1% | Remaining Purity % ([1]; 22° C./72% RH, 3 month): 97.5% | Remaining Purity % ([1]; 22° C./72% RH, Day 0): 99.4% | Remaining Purity % ([1]; 40° C./75% RH, 1 month): 98.8% | Remaining Purity % ([1]; 40° C./75% RH, 1 week): 99.3% | Remaining Purity % ([1]; 40° C./75% RH, 2 month): 96.3% | Remaining Purity % ([1]; 40° C./75% RH, 3 month): 95.3% | Remaining Purity % ([1]; 40° C./75% RH, Day 0): 99.4% | doxorubicin released by PREP (PREP [2]): neither PREP nor DPP IV | activation with PREP (PREP [3]): essentially no activation with PREP | doxorubicin released in mouse muscle lysate [4]: released essentially no doxorubicin | time to reach maximum free doxorubicin (FAP [5]): approximately 8 h | Km (FAP [6]): 11.2 µM | kcat(Vmax/[E]) (FAP [6]): 0.44 s⁻¹ | Vmax (FAP [6]; released doxorubicin): 5.877e-09 M/s | doxorubicin released by FAP (FAP [7]): released from 3099DOX by FAP

CC(C)[C@H](NC(=O)OCc1ccc(NC(=O)[C@@H]2CC(F)(F)CN2C(=O)CNC(=O)c2ccnc3ccccc23)cc1)C(=O)N1CCC[C@H]1B(O)O [Compound 5181]
IC50 (FAP [8]): 110 nM | IC50 (PREP [9]): 15 nM | IC50 (DPPII): 24000 nM | IC50 (DPP9): 2600 nM | IC50 (DPPIV): 860 nM | IC50 (DPP8): 7300 nM

COc1cccc2c1C(=O)c1c(O)c3c(c(O)c1C2=O)C[C@@](O)(C(=O)CO)C[C@@H]3O[C@H]1C[C@H](NC(=O)[C@@H]2CC(F)(F)CN2C(=O)CNC(=O)c2ccnc3ccccc23)[C@H](O)[C@H](C)O1 [Compound 5057DOX]
activation by FAP as compared to PREP (FAP [10]): selectively activated by FAP as compared to PREP | Km (FAP [11]; assay 6, [FAP] 4.00 × 10^−9M): 11.1 µM | Vmax (FAP [11]; assay 6, [FAP] 4.00 × 10^−9M): 5.19e-09 M/s | kcat(Vmax/[E]) (FAP [11]; assay 6, [FAP] 4.00 × 10^−9M): Kcat(Vmax/[E]) 1.30 sec^−1 | Kcat (FAP [11]; assay 7, [FAP] 1 nM): Kcat 0.98 sec^−1 | Km (FAP [11]; assay 7, [FAP] 1 nM): 4.85 µM | Vmax (FAP [11]; assay 7, [FAP] 1 nM, Dox standards, Daunorubicin internal standard): Vmax 9.80 × 10^−9M/sec

COc1cccc2c1C(=O)c1c(O)c3c(c(O)c1C2=O)C[C@@](O)(C(=O)CO)C[C@@H]3O[C@H]1C[C@H](NC(=O)[C@@H]2CCCN2C(=O)CNC(=O)OCc2ccccc2)[C@H](O)[C@H](C)O1 [z-GP-DOX, reference compound]
doxorubicin released by DPP IV [12]: essentially none by DPP IV | doxorubicin released by PREP (PREP [2]): A similar amount of doxorubicin was released from z-GP-DOX by FAP and PREP | doxorubicin released in mouse muscle lysate [4]: released a large amount of doxorubicin | doxorubicin released by FAP (FAP [7]): A similar amount of doxorubicin was released from z-GP-DOX by FAP and PREP

Reference: patent US12121505B2, “Fap-activated therapeutic agents, and uses related thereto” (BACH BIOSCIENCES, LLC, priority 2014, dated 2024)
